In PubChem BioAssay AID179 (DTP/NCI, 2004) one finds EC50, IC50 and outcome data, which are given here for 74 compounds.

The experiment deals with CEM cells HIV-1 protection, formazan growth assay. Briefly: NCI AIDS Antiviral Assay. The following applies: for IC50: measured here: growth of uninfected CEM cells. In outline:
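Five concentrations of each compound were applied to infected and uninfected human CEM cells. Protection from HIV-1 was judged from growth measured with a soluble formazan assay.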

Where “and” joins values, the source holds several entries; their conditions need not be identical. Equal values may be shown once. Calls of active or inactive are those of the source.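 How the source made its calls: active means compounds giving half or more protection of infected cells from virus-caused growth loss, again on retest; inactive means the rest.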

`OCC1C2CCC3(OCCO3)C12` (stereo unspecified): the EC50 was greater than 200 µM and the IC50 is greater than 200 µM. In the case of `CCOC(CNc1nn2c(C)nnc2s1)OCC`, the EC50 is greater than 200 µM and the IC50 was greater than 200 µM. With `COc1ccc2c(ccc3[nH]c4c(C)cnc(NCCCN(C)C)c4c32)c1`, the EC50 is greater than 2 µM and the IC50 came to 0.132 µM. `CC(=O)OCC1Cn2c(c(-c3ccccc3)c(=O)[nH]c2=S)O1` (stereo unspecified): the EC50 is greater than 603 µM and the IC50 is greater than 603 µM.

For `Brc1ccc(OCc2ccccc2)c2ccccc12`, the EC50 is greater than 200 µM and the IC50 turned out to be 63.1 µM.

In the case of `NC(=O)CCC(Nc1c2ccccc2nc2ccccc12)C(=O)O` (stereo unspecified), the outcome was inactive. Regarding `CCNc1nnc(CSc2nc(-c3ccccc3)c(-c3ccccc3)[nH]2)s1`, the EC50 is greater than 25.1 µM and the IC50 was determined as 12.9 µM. The like results for `CC(C)(C)c1cc(/C=C\C(=O)c2ccc([N+](=O)[O-])cc2)cc(C(C)(C)C)c1O` were, in that order, greater than 10 µM and greater than 10 µM. The corresponding values for `C=CCCC12CCCC(=O)C1Sc1ccc3ccccc3c12` (stereo unspecified) are greater than 12.3 µM and greater than 12.3 µM. As for `O=C(/C=C\c1cccc(C(F)(F)F)c1)c1ccccc1`, the outcome was inactive. On to `O=C1CCC(N2C(=O)C3C4CCC(O4)C3C2=O)C(=O)N1` (stereo unspecified), for which the EC50 is greater than 200 µM and the IC50 is greater than 200 µM. `O=C1Oc2cc(O)ccc2C2OCNCC12` (stereo unspecified): the EC50 was greater than 200 µM and the IC50 was greater than 200 µM. Take `Cn1cnc2nc[nH]c2c1=N`: the EC50 was greater than 200 µM and the IC50 was greater than 200 µM. Turning to `O=C(N/C(=C/c1ccc(Cl)cc1)c1nc2ccccc2c(=O)n1Nc1ccc([N+](=O)[O-])cc1[N+](=O)[O-])c1ccccc1`, the EC50 was greater than 200 µM and the IC50 was 178 µM. The corresponding values for `O=C(O)c1cc2cc(Br)ccc2cc1O` are greater than 200 µM and 85.1 µM. `COC1(OC)C2(Cl)C(Cl)=C(Cl)C1(Cl)C1c3ccc(C(C)=O)c4cccc(c34)C12` (stereo unspecified): the result was inactive. In the case of `COC1(C)C(=O)NC(=O)N(C2C=CC(CO)O2)C1O` (stereo unspecified), the EC50 is 7.41 µM and the IC50 amounted to 170 µM.

On to `CC(C)[C@H]1CO[C@@H]2O[C@H](C)CC(=O)N21`, for which the EC50 is greater than 1260 µM and the IC50 was greater than 1260 µM. Take `CCOC(=O)/C(F)=C/c1ccc(OC)cc1`: the EC50 is greater than 115 µM and the IC50 is greater than 115 µM. As to `COc1ccc(C[C@@H](CO)NC2=C(C#N)CCC2)cc1`, the EC50 was greater than 200 µM and the IC50 worked out at 64.6 µM. The like results for `CCOC(C[C@H](O)[C@H]1COC(=S)S1)OCC` were, in that order, 135 µM and greater than 200 µM. The corresponding values for `O=C(NCCCN1CCN(CCCNC(=O)Nc2cc(Cl)ccc2Cl)CC1)Nc1cc(Cl)ccc1Cl` are greater than 0.955 µM and greater than 0.955 µM. Take `CC1(C)CNC[C@](C)(OCc2ccccc2)N1`: the EC50 is greater than 200 µM and the IC50 is greater than 200 µM. In the case of `O=C(Cn1ccnc1[N+](=O)[O-])N(CCO)CCO`, the EC50 was greater than 977 µM and the IC50 was greater than 977 µM.

For the compound `Nn1ccc(=O)c2c1-c1ccccc1C(c1ccccc1)c1ccccc1-2` (stereo unspecified), the EC50 is greater than 200 µM and the IC50 was determined as 24 µM. The corresponding values for `CSC1=NCc2c(sc3c2CCCC3)N1` are greater than 200 µM and 35.5 µM. The corresponding values for `COc1cc2occ(-c3ccc(O)c(O)c3)c(=O)c2cc1O` are greater than 200 µM and 26.3 µM. For `CC(C)CCCC(C)[C@H]1CCC2[C@@H]3CCC4C[C@@H](CCC=C(c5cc(Cl)c(O)c(C(=O)NO)c5)c5cc(Cl)c(O)c(C(=O)NO)c5)CC[C@]4(C)C3CC[C@@]21C` (stereo partly specified), the EC50 is greater than 200 µM and the IC50 is greater than 200 µM. As to `O=C1CCc2cc3c(cc21)CC1(Cc2cc4c(cc2C1)CCCC4)C3`, the EC50 was greater than 200 µM and the IC50 amounted to 138 µM. The corresponding values for `COc1cc(CNC2=NCCC2)cc(OC)c1OC` are greater than 200 µM and 47.9 µM. The corresponding values for `Cc1cc(C)[n+]([O-])c(C)c1` are greater than 1820 µM and 977 µM. Regarding `O=C1Nc2nc(=O)nc3[nH]c(=O)nc(n23)N1`, the EC50 was greater than 251 µM and the IC50 was greater than 251 µM. Take `CCCCCSCCCCCCCC(=O)O`: the EC50 is greater than 200 µM and the IC50 amounted to 58.9 µM. The corresponding values for `O=S1(=O)c2ccccc2N(O)C2=NCCN21` are greater than 550 µM and 91.2 µM. Turning to `COC(=O)C1=Nc2c(C)nn(-c3ccccc3)c2N=C(c2ccccc2)C1`, the EC50 is greater than 200 µM and the IC50 was greater than 200 µM. In the case of `Cc1sc2[nH]c(=O)oc(=O)c2c1C`, the EC50 was greater than 200 µM and the IC50 came out at 30.2 µM. Turning to `NC(=O)c1ccc(N=Nc2c(O)c3ccccc3[nH]c2=O)cc1`, the EC50 is greater than 200 µM and the IC50 was greater than 200 µM.

For the compound `CCC1(C)CC(=O)NC1=O` (stereo unspecified), the EC50 is greater than 37.2 µM and the IC50 is greater than 37.2 µM. With `C[C@]12CC[C@@H]3c4cc(Br)c(O)c(Br)c4CC[C@H]3[C@@H]1CC(Br)C2=O` (stereo partly specified), the EC50 was greater than 200 µM and the IC50 stood at 3.47 µM. As for `CCC[CH2][Sn]([CH2]CCC)([O]C(=O)C1CCC(=O)N1)[O]C(=O)C1CCC(=O)N1` (stereo unspecified), the EC50 was greater than 38.9 µM and the IC50 stood at 0.0912 µM. The like results for `COc1ccc(C[C@H]2COC(=O)[C@@H]2Cc2ccc(OC)c(OC)c2)cc1OC` were, in that order, greater than 200 µM and 123 µM.

On to `O=C(Nc1ccn(C2CC(O)C(CO)O2)c(=O)n1)c1ccccc1` (stereo unspecified), for which the EC50 was greater than 200 µM and the IC50 was greater than 200 µM. In the case of `CSC(=O)c1sc(SC)[n+](-c2ccccc2)c1O`, the EC50 was greater than 200 µM and the IC50 was 10.2 µM. In the case of `CC(C)C(=O)OCN(C)c1nc(N(C)COC(=O)C(C)C)nc(N(C)COC(=O)C(C)C)n1`, the EC50 is greater than 200 µM and the IC50 was found to be 18.6 µM. Take `NC(=O)Cn1c(=O)[nH]c(=O)c2[nH]cnc21`: the EC50 was greater than 174 µM and the IC50 is greater than 174 µM. As for `CC(C)=[CH][Sb]([Br])([CH]=C(C)C)([CH]=C(C)C)[c]1ccccc1`, the EC50 is greater than 562 µM and the IC50 was 6.76 µM. The like results for `C[C@@H]1C(=O)O[C@@H]2C[C@@]1(C)[C@@H]1C(=O)C3(O)OC14C2(C)OC(=O)[C@@]4(O)CCC1C3C(O)C=C2CC=CC(=O)[C@@]21C` (stereo partly specified) were, in that order, greater than 200 µM and 20 µM. As to `CC1=C(c2ccc(C)cc2)NC(=S)C(C)C(c2ccc(C)cc2)=N1` (stereo unspecified), the EC50 was greater than 200 µM and the IC50 was 97.7 µM.

In the case of `CCOC(=O)CCC(NC(=O)c1ccc(Oc2nc3ccccc3nc2-c2ccccc2)cc1)C(=O)OCC` (stereo unspecified), the EC50 was greater than 200 µM and the IC50 is greater than 200 µM. Turning to `COC1/C=C/OC2(C)Oc3c(C)c(O)c4c(O)c(c(/C=N/N5C(C)CN(Cc6cccc(O)c6)CC5C)c(O)c4c3C2=O)NC(=O)/C(C)=C\C=C\C(C)C(O)C(C)C(O)C(C)C(OC(C)=O)C1C` (stereo unspecified), the EC50 is greater than 200 µM and the IC50 stood at 6.46 µM.

Consider `CC1CC[C@]2(C(=O)O)CCC3(C)C(=CCC4[C@@]5(C)CC[C@H](OS(=O)(=O)c6ccccc6)C(C)(C)C5CC[C@]43C)[C@@H]2[C@H]1C` (stereo partly specified), for which the result was inactive. As to `O=C(NCCCCCCO)c1cccc2cc3ccccc3nc12`, the EC50 is greater than 200 µM and the IC50 amounted to 18.6 µM. As to `CSc1nc(NC2OC(CO)C(O)C(O)C2O)cc(=O)[nH]1` (stereo unspecified), the result was inactive.

With `O=C1OCCC1(Br)C(Br)c1ccccc1` (stereo unspecified), the EC50 is greater than 200 µM and the IC50 was found to be 6.03 µM. As for `COc1ccc(/C=C/C(=O)c2sc(-n3nc(-c4ccccc4)cc3-c3ccccc3)nc2C)cc1OC`, the EC50 is greater than 70.8 µM and the IC50 stood at 38 µM. The corresponding values for `Cc1ccccc1C(=O)N1CCN(C(=O)c2ccccc2C)CC1` are greater than 145 µM and greater than 145 µM. The corresponding values for `COc1cc(O)c2c(=O)c(O)c(-c3ccc(O)c(OC)c3)oc2c1` are greater than 200 µM and greater than 200 µM. The like results for `CCC1(CCC#N)CCC(N)=CC1=O` (stereo unspecified) were, in that order, greater than 200 µM and greater than 200 µM.

On to `CCCCNC(=O)Cn1c2ccc(Br)cc2c2nc3ccccc3nc21`, for which the EC50 is greater than 100 µM and the IC50 is greater than 100 µM. On to `COc1ccc2nc3cccc([N+](=O)[O-])c3c(NCCO)c2c1`, for which the EC50 was greater than 2 µM and the IC50 came out at 0.0309 µM.

For `O=C(CC(=O)n1nc(-c2ccccc2)c(N=Nc2ccc(Cl)cc2)c1-c1ccccc1)Nc1cccc(Cl)c1`, the EC50 was greater than 200 µM and the IC50 amounted to 81.3 µM. Consider `CC(=O)CC(=O)ON(C)C(C)=O`, for which the EC50 is greater than 1450 µM and the IC50 is greater than 1450 µM. As to `CCOC(=O)c1ccc(C)c(N=NN(C)C)c1`, the result was inactive. For `Cc1cccc(C2=NC(C)(C)C(C)(C)N=C2c2cccc(C)n2)n1`, the EC50 is greater than 81.3 µM and the IC50 was greater than 81.3 µM. Take `C=CCNC(=O)CN1NN=C(c2ccccc2)N1`: the EC50 is greater than 107 µM and the IC50 turned out to be 93.3 µM. Take `COc1ccccc1/C=C1\N=C(C)OC1=O`: the outcome was inactive. On to `S=C1CC(N2CCCC2)=Nc2ccccc2N1`, for which the EC50 is greater than 200 µM and the IC50 was greater than 200 µM. Regarding `Cc1cccc(C2NC(=O)N3C(c4cccc(C)c4)NC(=O)N23)c1` (stereo unspecified), the EC50 is greater than 200 µM and the IC50 is 38 µM. The like results for `O=c1[nH]nc(Cc2ccccc2)n1/N=C/c1ccccc1O` were, in that order, greater than 200 µM and 85.1 µM. In the case of `CN1C2C=CC(=O)C1C(C#N)C2` (stereo unspecified), the EC50 is greater than 200 µM; the IC50 was 34.7 µM and 115 µM.

In the case of `CCCCC1OC2O[C@]3(C)CCC4C(C)CCC([C@H]1C)C24OO3` (stereo partly specified), the EC50 was greater than 95.5 µM and the IC50 was determined as 22.4 µM. The like results for `CCOC(=O)C1CCCC1S(=O)(=O)c1ccc(C)cc1` (stereo unspecified) were, in that order, greater than 200 µM and greater than 200 µM. As for `CO/N=C1\CC(NC(=O)CNC(=O)OC(C)(C)C)c2ccsc21` (stereo unspecified), the EC50 is greater than 200 µM and the IC50 was greater than 200 µM.

As for `CC1(C)CSCC(C)(C)C2(C=CC=CC=N2)C1=O` (stereo unspecified), the EC50 was greater than 191 µM and the IC50 worked out at 26.3 µM.

Broadly, the EC50 is the concentration at which the effect is half-maximal. What is called IC50 is the midpoint of a concentration-inhibition curve. Lower therefore signals higher potency.
